Source: patent US8609852B2, “Thiazolyl mGluR5 antagonists and methods for their use” (Merck Sharp & Dohme Corp., priority 2004, dated 2013)

Key:
hmGluR5a receptor = hmGluR5a receptor (Homo sapiens (Human), UniProt P41594); assay: Calcium Flux Assay; assay type: cell-based; settings: hmGluR5a/L38-20 cells, glutamate-evoked [Ca2+]i
Protocol: The activity of compounds was examined against the hmGluR5a receptor stably expressed in mouse fibroblast Ltk− cells (the hmGluR5a/L38-20 cell line). See generally Daggett et al., Neuropharmacology 34:871-886 (1995). Receptor activity was detected by changes in intracellular calcium ([Ca^2+]i) measured using the fluorescent calcium-sensitive dye, fura-2. hmGluR5a/L38-20 cells were plated onto 96-well plates, and loaded with 3 µM fura-2 for 1 h. Unincorporated dye was washed from the cells, and the cell plate was transferred to a custom-built 96-channel fluorimeter (SIBIA-SAIC, La Jolla, Calif.) which is integrated into a fully automated plate handling and liquid delivery system. Cells were excited at 350 and 385 nm with a xenon source combined with optical filters. Emitted light was collected from the sample through a dichroic mirror and a 510 nm interference filter and directed into a cooled CCD camera (Princeton Instruments). Image pairs were captured approximately every 1 s, and ratio images were generated after background subtraction. After a basal reading of 20 s, an EC80 concentration of glutamate ([…]) was added to the well, and the response evaluated for another 60 s. The glutamate-evoked increase in [Ca^2+]i in the presence of the screening compound was compared to the response of glutamate alone (the positive control).

[1] = target: metabotropic glutamate receptor subtype 5 (Rattus norvegicus (Rat), UniProt P31424); assay: [3H]-mGluR5 Antagonist Binding to Rodent Brain Membranes
metabotropic glutamate receptor subtype 5, sequence (P31424 21-1203): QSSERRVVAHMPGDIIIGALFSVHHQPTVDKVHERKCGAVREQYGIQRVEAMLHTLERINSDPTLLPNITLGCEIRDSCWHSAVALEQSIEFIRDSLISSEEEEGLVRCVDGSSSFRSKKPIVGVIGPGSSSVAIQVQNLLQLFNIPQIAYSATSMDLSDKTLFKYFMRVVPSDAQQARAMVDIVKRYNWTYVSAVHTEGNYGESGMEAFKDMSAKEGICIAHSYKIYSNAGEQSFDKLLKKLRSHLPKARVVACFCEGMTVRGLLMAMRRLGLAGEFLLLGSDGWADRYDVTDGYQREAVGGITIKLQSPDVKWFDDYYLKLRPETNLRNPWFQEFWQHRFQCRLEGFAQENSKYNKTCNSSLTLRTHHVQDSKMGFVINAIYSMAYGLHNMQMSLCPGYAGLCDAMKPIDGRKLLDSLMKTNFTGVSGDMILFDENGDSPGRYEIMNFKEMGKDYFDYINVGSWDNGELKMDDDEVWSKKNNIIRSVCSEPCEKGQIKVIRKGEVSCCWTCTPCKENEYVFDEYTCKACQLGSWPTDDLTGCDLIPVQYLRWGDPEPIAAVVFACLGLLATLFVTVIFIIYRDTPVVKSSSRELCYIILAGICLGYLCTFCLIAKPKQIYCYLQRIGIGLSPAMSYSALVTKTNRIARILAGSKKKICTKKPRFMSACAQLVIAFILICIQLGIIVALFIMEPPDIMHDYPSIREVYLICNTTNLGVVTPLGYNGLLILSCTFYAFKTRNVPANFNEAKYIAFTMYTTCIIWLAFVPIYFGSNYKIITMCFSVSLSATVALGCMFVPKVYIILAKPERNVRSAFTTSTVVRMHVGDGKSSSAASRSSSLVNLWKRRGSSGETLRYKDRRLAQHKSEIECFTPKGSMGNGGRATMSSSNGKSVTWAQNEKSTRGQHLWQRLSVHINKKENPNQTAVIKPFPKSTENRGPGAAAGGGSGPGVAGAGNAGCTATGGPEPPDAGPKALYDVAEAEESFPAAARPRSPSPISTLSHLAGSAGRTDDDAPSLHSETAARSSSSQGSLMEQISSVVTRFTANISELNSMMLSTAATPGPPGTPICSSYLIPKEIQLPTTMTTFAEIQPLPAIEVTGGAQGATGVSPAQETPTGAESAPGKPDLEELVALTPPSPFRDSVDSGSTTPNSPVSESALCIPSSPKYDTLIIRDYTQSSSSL
Protocol: In accordance with Anderson J J, Rao S P, Rowe B, Giracello D R, Holtz G, Chapman D F, Tehrani L, Bradbury M J, Cosford N D, Varney M A, [^3H]Methoxymethyl-3-[(2-methyl-1,3-thiazol-4-yl)ethynyl]pyridine binding to metabotropic glutamate receptor subtype 5 in rodent brain: in vitro and in vivo characterization. J Pharmacol Exp Ther. 2002 December; 303 (3):1044-51, membranes were prepared (as described in Ransom R W and Stec N L (1988) Cooperative modulation of [^3H]MK-801 binding to the N-methyl-D-aspartate receptor-ion channel complex by L-glutamate, glycine, and polyamines. J Neurochem 51:830-836) using whole rat brain, or mGlu5^+/+ or mGlu5^−/− whole mouse brain.
Binding assays were performed as described in Schaffhauser H, Richards J G, Cartmell J, Chaboz S, Kemp J A, Klingelschmidt A, Messer J, Stadler H, Woltering T and Mutel V (1998) In vitro binding characteristics of a new selective group II metabotropic glutamate receptor radioligand, [^3H]LY354740, in rat brain. Mol Pharmacol 53:228-233) at room temperature with slight modifications. Briefly, membranes were thawed and washed once with assay buffer (50 mM HEPES, 2 mM MgCl2, pH 7.4), followed by centrifugation at 40,000×g for 20 min. The pellet was resuspended in assay buffer and briefly homogenized with a Polytron.
For protein linearity experiments, increasing concentrations of membrane protein were added to 96-well plates in triplicate and binding was initiated by addition of 20 nM [^3H]methoxymethyl-3-[(2-methyl-1,3-thiazol-4-yl)ethynyl]pyridine. The assay was incubated for 2 h and non-specific binding was determined using 10 μM MPEP. The binding was terminated by rapid filtration through glass-fiber filters (Unifilter-96 GF/B plate, Packard) using a 96-well plate Brandel cell harvester. Following addition of scintillant, the radioactivity was determined by liquid scintillation spectrometry. Protein measurements were performed by BioRad-DC Protein assay using bovine serum albumin as the standard.
Saturation binding experiments were performed in triplicate with increasing concentrations of [^3H]methoxymethyl-3-[(2-methyl-1,3-thiazol-4-yl)ethynyl]pyridine (1 pM to 100 nM). The time course of association was measured by the addition of 10 nM [^3H]methoxymethyl-3-[(2-methyl-1,3-thiazol-4-yl)ethynyl]pyridine to the membranes at different time points (0-240 min), followed by filtration. Dissociation was measured by the addition of 100 μM unlabeled methoxymethyl-3-[(2-methyl-1,3-thiazol-4-yl)ethynyl]pyridine at different time points to membranes previously incubated for 3 h with 10 nM [^3H]methoxymethyl-3-[(2-methyl-1,3-thiazol-4-yl)ethynyl]pyridine. For competition experiments, 100 μg membrane protein and 10 nM [^3H]methoxymethyl-3-[(2-methyl-1,3-thiazol-4-yl)ethynyl]pyridine was added to wells containing increasing concentration of the test compound in duplicate (methoxymethyl-3-[(2-methyl-1,3-thiazol-4-yl)ethynyl]pyridine or MPEP). [^3H]-3-Methoxy-5-(pyridin-2-ylethynyl)pyridine may also be used as the radioligand in the procedure described above. (See, Cosford, N. D. P.; Roppe, J.; Tehrani, L.; Seiders, T. J.; Schweiger, E. J. et al. [3H]-Methoxymethyl-MTEP and [3H]-methoxy-PEPy): Potent and selective radioligands for the Metabotropic Glutamate Subtype 5 (mGlu5) Receptor. Bioorg. Med. Chem. Lett. 2003, 13, 351-354.)

hmGluR5a receptor, sequence (P41594 other isoform, or with tags, fused parts or gaps): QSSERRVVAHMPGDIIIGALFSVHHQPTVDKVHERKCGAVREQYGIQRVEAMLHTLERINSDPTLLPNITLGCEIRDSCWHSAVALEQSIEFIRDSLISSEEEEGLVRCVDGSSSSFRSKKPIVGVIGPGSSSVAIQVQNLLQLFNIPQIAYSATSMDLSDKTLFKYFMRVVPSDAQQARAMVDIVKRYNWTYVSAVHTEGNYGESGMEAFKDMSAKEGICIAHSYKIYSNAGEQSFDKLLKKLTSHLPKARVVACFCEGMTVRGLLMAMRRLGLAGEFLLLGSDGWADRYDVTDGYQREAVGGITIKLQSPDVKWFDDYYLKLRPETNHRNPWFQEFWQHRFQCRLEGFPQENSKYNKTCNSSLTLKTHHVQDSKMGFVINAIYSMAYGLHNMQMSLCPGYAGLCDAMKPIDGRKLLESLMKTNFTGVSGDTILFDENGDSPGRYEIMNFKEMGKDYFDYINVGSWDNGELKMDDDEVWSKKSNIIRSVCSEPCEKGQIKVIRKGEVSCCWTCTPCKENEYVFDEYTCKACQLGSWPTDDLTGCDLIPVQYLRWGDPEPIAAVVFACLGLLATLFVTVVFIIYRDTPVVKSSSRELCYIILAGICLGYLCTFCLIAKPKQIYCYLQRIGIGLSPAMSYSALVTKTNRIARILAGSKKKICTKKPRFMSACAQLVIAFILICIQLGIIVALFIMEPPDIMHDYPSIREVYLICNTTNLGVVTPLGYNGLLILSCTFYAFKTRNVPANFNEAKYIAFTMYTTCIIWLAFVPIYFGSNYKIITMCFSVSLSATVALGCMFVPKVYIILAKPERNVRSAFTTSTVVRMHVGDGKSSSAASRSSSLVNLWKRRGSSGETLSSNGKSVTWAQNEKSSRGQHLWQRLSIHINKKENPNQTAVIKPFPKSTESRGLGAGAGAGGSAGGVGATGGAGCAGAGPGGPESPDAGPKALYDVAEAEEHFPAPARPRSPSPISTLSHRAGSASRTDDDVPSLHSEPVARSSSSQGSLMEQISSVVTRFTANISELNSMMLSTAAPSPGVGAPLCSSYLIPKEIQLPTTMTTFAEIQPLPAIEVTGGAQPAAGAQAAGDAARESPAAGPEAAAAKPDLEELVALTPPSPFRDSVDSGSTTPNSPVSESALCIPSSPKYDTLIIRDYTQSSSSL

Row | Structure (SMILES) | IC50 (hmGluR5a receptor) [nM] | Ki [1] [nM]
1 | Cc1nc(C#Cc2ccc(-c3cccc4ncccc34)nc2)cs1 [Example 35] | 17 | 5
2 | Cc1nc(C#Cc2ccc(-c3c(C)cccc3C)nc2)cs1 [Example 36] | 14 | 3
3 | COc1ccc(C#N)cc1-c1ccc(C#Cc2csc(C)n2)cn1 [Example 37] | 14 | 10
4 | Cc1ccc(C)c(-c2ccc(C#Cc3csc(C)n3)cn2)c1 [Example 38] | 13 | 8
5 | Cc1nc(C#Cc2ccc(-n3ccc4ccccc43)nc2)cs1 [Example 39] | 13 | 4
6 | Cc1nc(C#Cc2ccc(N3CCSCC3)nc2)cs1 [Example 40] | 12 | 9
7 | Cc1nc(C#Cc2cncc(Nc3cccnc3)c2)cs1 [Example 41] | 11 | 5
8 | Cc1nc(C#Cc2ccc(NC3CCC3)nc2)cs1 [Example 42] | 11 | 17
9 | Cc1nc(C#Cc2cncc(-c3cccc(Cl)c3)c2)cs1 [Example 43] | 11 | 0.65
10 | Cc1nc(C#Cc2ccc(-c3ccccc3CO)nc2)cs1 [Example 44] | 11 | 2
11 | Cc1nc(C#Cc2ccc(-c3ccc(F)c(F)c3)nc2)cs1 [Example 45] | 11 | 7
12 | Cc1nc(C#Cc2ccc(-c3ccc(F)cc3)nc2)cs1 [Example 46] | 11 | 2
13 | COc1ccc(C)cc1-c1ccc(C#Cc2csc(C)n2)cn1 [Example 47] | 11 | 19
14 | Cc1nc(C#Cc2ccc(-c3cc(C#N)ccc3F)nc2)cs1 [Example 48] | 9 | 12.5
15 | Cc1nc(C#Cc2ccc(-c3ccc(F)c(C)c3)nc2)cs1 [Example 49] | 9 | 5.5
16 | Cc1nc(C#Cc2ccc(N(C)c3ccccn3)nc2)cs1 [Example 50] | 9 | 12
17 | COc1cccc(-c2ccc(C#Cc3csc(C)n3)cn2)c1F [Example 51] | 8 | 9
18 | Cc1cccc(-c2ccc(C#Cc3csc(C)n3)cn2)c1 [Example 52] | 8 | 2
19 | Cc1nc(C#Cc2ccc(N3C4CCC3CC4)nc2)cs1 [Example 53] | 8 | 8
20 | Cc1ccc(F)c(-c2ccc(C#Cc3csc(C)n3)cn2)c1 [Example 54] | 8 | 1.5

Row | Structure (SMILES) | IC50 (hmGluR5a receptor) [nM] | Ki [1] [nM]
21 | CCc1ccccc1-c1ccc(C#Cc2csc(C)n2)cn1 [Example 55] | 7 | 4
22 | Cc1nc(C#Cc2ccc(-c3cccc(CO)c3)nc2)cs1 [Example 56] | 7 | 13
23 | Cc1nc(C#Cc2ccc(N3CCCCCC3)nc2)cs1 [Example 57] | 7 | 7.5
24 | Cc1nc(C#Cc2ccc(N3C(C)CCC3C)nc2)cs1 (centres unmarked) [Example 58] | 7 | 1.5
25 | CCC(C)(C)Nc1ccc(C#Cc2csc(C)n2)cn1 [Example 59] | 6 | 4
26 | Cc1nc(C#Cc2ccc(-c3cccc(Cl)c3C)nc2)cs1 [Example 60] | 6 | 1.5
27 | Cc1nc(C#Cc2ccc(N3CCCC(F)C3)nc2)cs1 (centres unmarked) [Example 61] | 6 | 12
28 | CC[C@H](C)Nc1ccc(C#Cc2csc(C)n2)cn1 [Example 62] | 6 | 11
29 | Cc1nc(C#Cc2ccc(-c3cccc(C)c3C)nc2)cs1 [Example 63] | 6 | 4
30 | CSc1ccccc1-c1ccc(C#Cc2csc(C)n2)cn1 [Example 64] | 6 | 0.8
31 | Cc1nc(C#Cc2cncc(-c3ccc(CO)cc3)c2)cs1 [Example 65] | 6 | 8
32 | CCC(CC)Nc1ccc(C#Cc2csc(C)n2)cn1 [Example 66] | 5 | 9
33 | Cc1nc(C#Cc2cncc(CCc3ccccc3)c2)cs1 [Example 67] | 5 | 7
34 | CC[C@@H](C)Nc1ccc(C#Cc2csc(C)n2)cn1 [Example 68] | 5 | 7
35 | Cc1nc(C#Cc2ccc(N3CCCC3)nc2)cs1 [Example 69] | 5 | 14
36 | Cc1nc(C#Cc2ccc(-c3cccc(C#N)c3)nc2)cs1 [Example 70] | 5 | 5
37 | COCc1ccccc1-c1ccc(C#Cc2csc(C)n2)cn1 [Example 71] | 5 | 4.5
38 | Cc1nc(C#Cc2ccc(NC(C)(C)C)nc2)cs1 [Example 72] | 5 | 7
39 | Cc1nc(C#Cc2ccc(C3CC4CCC3C4)nc2)cs1 (centres unmarked) [Example 73] | 4 | 2
40 | Cc1nc(C#Cc2ccc(N3CC4CCC3C4)nc2)cs1 (centres unmarked) [Example 74] | 4 | 7.5

Row | Structure (SMILES) | IC50 (hmGluR5a receptor) [nM] | Ki [1] [nM]
41 | Cc1nc(C#Cc2ccc(C3CCCC3)nc2)cs1 [Example 75] | 4 | 4
42 | Cc1nc(C#Cc2cncc(C3CC3)c2)cs1 [Example 76] | 3.5 | 3
43 | Cc1nc(C#Cc2ccc(-c3cccc(C(F)(F)F)c3)nc2)cs1 [Example 77] | 3 | 13
44 | C=Cc1cncc(C#Cc2csc(C)n2)c1 [Example 78] | 3 | 1.4
45 | Cc1nc(C#Cc2ccc(Oc3ccccc3)nc2)cs1 [Example 79] | 3 | 16
46 | Cc1cncc(C#Cc2csc(C)n2)c1 [Example 80] | 3 | 3
47 | Cc1nc(C#Cc2ccc(N3CCC(C)CC3)nc2)cs1 [Example 81] | 3 | 6
48 | Cc1nc(C#Cc2cncc(N(C)c3cccnc3)c2)cs1 [Example 82] | 3 | 2
49 | CCC(C)Sc1ccc(C#Cc2csc(C)n2)cn1 (centres unmarked) [Example 83] | 2 | 12
50 | Cc1nc(C#Cc2cncc(-c3ccccc3CO)c2)cs1 [Example 84] | 2 | 7
51 | Cc1nc(C#Cc2cncc(-c3cccc(C#N)c3)c2)cs1 [Example 85] | 2 | 1
52 | CCCN(C)c1ccc(C#Cc2csc(C)n2)cn1 [Example 86] | 2 | 7
53 | Cc1nc(C#Cc2ccc(N3CCC(F)CC3)nc2)cs1 [Example 88] | 2 | 4
54 | CCOc1ccccc1-c1ccc(C#Cc2csc(C)n2)cn1 [Example 89] | 1.6 | 2
55 | Cc1nc(C#Cc2cncc(Cl)c2)cs1 [Example 90] | 1.5 | 4
56 | Cc1nc(C#Cc2cncc(Oc3cccnc3)c2)cs1 [Example 91] | 1 | 1
57 | Cc1nc(C#Cc2cnc(N3CCCC(CO)C3)nc2)cs1 (centres unmarked) [Example 92] | 12 | 7
58 | Cc1nc(C#Cc2cnc(N3CCCCCC3)nc2)cs1 [Example 93] | 11 | 3
